The text below walks through data of ChEMBL document CHEMBL1147387, “A cytotoxic beta-carboline from the bryozoan Catenicella cribraria” (1993).

The nature of the test: Cytotoxicity against human NCI60 cells. It is filed as functional.

In general, GI50 refers to the concentration that inhibits growth by half. Lower therefore signals more potent growth inhibition. A word on the TGI: it is the concentration at which net growth stops.

The compound `C=Cc1nccc2c1[nH]c1c(O)cccc12` showed a GI50 of 1.8 µM and a TGI of 5.8 µM. For the same compound, under “read-out: LC50 (the source's name)”, the CC50 was determined as 19 µM.
